Data set [1] has as its target T1, PXR-LBD-SRC1p (Homo sapiens, UniProt O75469).
T1 sequence (O75469 with tags, fused parts or gaps limits assumed): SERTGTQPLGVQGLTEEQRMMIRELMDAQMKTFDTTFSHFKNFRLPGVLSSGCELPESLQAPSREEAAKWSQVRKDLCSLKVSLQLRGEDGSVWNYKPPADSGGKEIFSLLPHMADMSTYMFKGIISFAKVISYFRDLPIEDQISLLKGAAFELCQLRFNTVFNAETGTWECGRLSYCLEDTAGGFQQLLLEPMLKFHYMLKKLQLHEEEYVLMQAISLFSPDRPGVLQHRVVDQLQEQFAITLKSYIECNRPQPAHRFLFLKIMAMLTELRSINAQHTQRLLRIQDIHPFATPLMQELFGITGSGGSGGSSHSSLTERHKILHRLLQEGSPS
The data set is described as follows: Competitive isothermal titration calorimetry. The following applies: for ΔG°: from KD of competitive ITC. In kind it is binding. (Isothermal titration calorimetry measures the heat released or taken up as one component is titrated into another.)

Data set [2] has as its system PXR target gene Cyp3a11 mRNA. The data set is described as follows: Cyp3a11 mRNA expression. The following applies: PXR-humanized mouse hepatocytes, 10 µM, 72 h, normalized to GAPDH. The class given is cell-based.
The target in a further data set is T2, PXR-LBD (Homo sapiens, UniProt O75469).
T2 sequence (O75469 111-434): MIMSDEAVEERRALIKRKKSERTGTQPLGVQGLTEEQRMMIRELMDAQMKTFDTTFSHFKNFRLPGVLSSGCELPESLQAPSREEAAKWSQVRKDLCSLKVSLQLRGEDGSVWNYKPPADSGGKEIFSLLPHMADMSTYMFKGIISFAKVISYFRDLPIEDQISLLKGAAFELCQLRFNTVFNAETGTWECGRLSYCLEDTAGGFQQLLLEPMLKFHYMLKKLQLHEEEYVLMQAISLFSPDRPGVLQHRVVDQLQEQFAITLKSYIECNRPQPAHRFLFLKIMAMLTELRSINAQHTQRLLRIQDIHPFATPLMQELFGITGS
The data set is described as follows: biochemical.

In a further data set the test system is CYP3A4 mRNA. The class given is cell-based. To be noted: 10 µM 8-OHEFV co-incubated with 2 µM RIF, 48 h, primary human hepatocytes, p=0.004.
For data set [3] the following is noted: 129 patients receiving 600 mg of EFV per day, cited from earlier work.
Data set [4] has as its target T1, PXR-LBD-SRC1p. The data set is described as follows: Isothermal titration calorimetry. In kind it is binding. To be noted: for N value (stoichiometry, single-site binding model) / -TΔS° / ΔH° / ΔG°: direct ITC; for -TΔS° / ΔH°: 25°C; for ΔG°: from KD by ΔG° = -RTlnKD.
The subject of data set [5] is PXR target gene Cyp3a11 mRNA. As to the kind of experiment: Cyp3a11 mRNA expression. In kind it is cell-based. To be noted: PXR-null mouse hepatocytes, 10 µM, 72 h.

Structures are written as SMILES. “Also recorded” adds a separate entry of the source. Read-outs that look alike come from different tables or passages of the source.

Turning to `COc1ccc(C(=O)Nc2ccc(Cl)cc2C(O)(C#CC2CC2)C(F)(F)F)cc1` (stereo not shown) [analog 7, N-(4-chloro-2-(4-cyclopropyl-1,1,1-trifluoro-2-hydroxybut-3-yn-2-yl)phenyl)-4-methoxybenzamide], at PXR-LBD-SRC1p [1], the Kd is 4.2 ± 1.1 µM and the “ΔG°” value is -7.3 ± 0.2 kcal/mol. The “Cyp3a11 mRNA levels, fold change from DMSO control” value (shortened to “Cyp3a11 mRNA levels, fold change”) in data set [2] was 37 fold.
`COc1ccc(C2Nc3ccc(Cl)cc3[C@@](C#CC3CC3)(C(F)(F)F)O2)cc1` (stereo partly drawn) [analog 9, (S)-6-chloro-4-(cyclopropylethynyl)-2-(4-methoxyphenyl)-4-(trifluoromethyl)-1,4-dihydro-2H-benzo[d][1,3]oxazine] showed an IC50 at PXR-LBD of 39.3 ± 24.1 µM.
As to `O=C1Nc2c(O)cc(Cl)cc2[C@@](C#CC2CC2)(C(F)(F)F)O1` [8-OHEFV, (S)-6-chloro-4-(cyclopropylethynyl)-8-hydroxy-4-(trifluoromethyl)-1,4-dihydro-2H-benzo[d][1,3]oxazin-2-one], in data set [2], the “Cyp3a11 mRNA levels, fold change” value is on record as “did not result in modulation of Cyp3a11 mRNA levels; also recorded: did not result in a change in Cyp3a11 mRNA levels”. The “decrease in CYP3A4 mRNA induction as compared to 2 µM RIF alone” value in the data set on CYP3A4 mRNA was around 20%. In data set [3] (at 4 weeks ref 7), the plasma concentration is on record as 6.51 ± 0.87 µM. Besides, the plasma concentration in data set [3] (at 16 weeks ref 7) is 6.84 ± 1.06 µM. On PXR-LBD-SRC1p [4], the Kd came out at 7.9 ± 7.7 µM; the “N value (stoichiometry, single-site binding model)” value is “approximately 1.0”; the “-TΔS°” value is recorded as −3.8 ± 1.5 kcal/mol•K; the “ΔH°” value was -3.1 ± 1.2 kcal/mol. The “ΔG°” value at PXR-LBD-SRC1p [4] is -6.9 ± 0.3 kcal/mol.
As to `CCCC#CC1(C(F)(F)F)OC(=O)Nc2ccc(Cl)cc21` (stereo not shown) [analog 4, 6-chloro-4-(pent-1-yn-1-yl)-4-(trifluoromethyl)-1,4-dihydro-2H-benzo[d][1,3]oxazin-2-one], at PXR-LBD-SRC1p [4], binding was characterised by a dissociation constant (Kd) of 78.7 ± 15.3 µM, the “-TΔS°” value is on record as −4.5 ±0.2 kcal/mol•K, the “ΔH°” value is -1.1 ± 0.1 kcal/mol and the “ΔG°” value was -5.6 ± 0.1 kcal/mol.
On to `O=C1Oc2ccc(Cl)cc2C(C#CC2CC2)(C(F)(F)F)O1` (stereo not shown) [analog 15, 6-chloro-4-(cyclopropylethynyl)-4-(trifluoromethyl)-4H-benzo[d][1,3]dioxin-2-one], for which, on PXR-LBD-SRC1p [4], the Kd came to 10.9 ± 1.8 µM, the “-TΔS°” value is recorded as −5.1 ±0.2 kcal/mol•K, the “ΔH°” value is -1.6 ± 0.2 kcal/mol and the “ΔG°” value was -6.8 ± 0.1 kcal/mol.
`Nc1ccc(Cl)cc1C(=O)C(F)(F)F` [analog 10, 1-(2-amino-5-chlorophenyl)-2,2,2-trifluoroethan-1-one] showed a Kd on PXR-LBD-SRC1p [1] above 400 µM. Moreover, in data set [2], the “Cyp3a11 mRNA levels, fold change” value is given as “no change in the Cyp3a11 mRNA levels”.
Consider `O=C1Nc2ccc(Cl)cc2[C@@](C#CC2CC2)(C(F)(F)F)O1` [EFV, (S)-6-chloro-4-(cyclopropylethynyl)-4-(trifluoromethyl)-1,4-dihydro-2H-benzo[d][1,3]oxazin-2-one, reference compound], for which the “Cyp3a11 mRNA abundance” value in data set [5] is on record as “no impact on Cyp3a11 mRNA abundance”. Also, the plasma concentration in data set [3] (at 4 weeks ref 7) is listed as 10.61 ± 1.11 µM. The plasma concentration in data set [3] (at 16 weeks ref 7) is recorded as 10.33 ± 0.98 µM. Further, at PXR-LBD-SRC1p [4], the “N value (stoichiometry, single-site binding model)” value is “approximately 1.0”; the “-TΔS°” value was −4.9 ±0.4 kcal/mol•K; the “ΔH°” value is -2.1 ± 0.3 kcal/mol; the “ΔG°” value was -6.9 ± 0.2 kcal/mol.
On to `COc1ccc(CNc2ccc(Cl)cc2[C@](O)(C#CC2CC2)C(F)(F)F)cc1` [analog 5, (R)-2-(5-chloro-2-((4-methoxybenzyl)amino)phenyl)-4-cyclopropyl-1,1,1-trifluorobut-3-yn-2-ol], for which, at PXR-LBD-SRC1p [1], binding was put at a Kd of 14.5 ± 4.3 µM and the “ΔG°” value was -6.6 ± 0.1 kcal/mol.
Regarding `O=C1Cc2ccc(Cl)cc2C(C#CC2CC2)(C(F)(F)F)O1` (stereo not shown) [analog 16, 7-chloro-1-(cyclopropylethynyl)-1-(trifluoromethyl)isochroman-3-one], at PXR-LBD-SRC1p [1], the Kd stood at 10.5 ± 1.5 µM and the “ΔG°” value is -6.8 ± 0.2 kcal/mol.
As to `FC(F)(F)[C@@]1(C#CC2CC2)OCNc2ccc(Cl)cc21` [analog 8, (S)-6-chloro-4-(cyclopropylethynyl)-4-(trifluoromethyl)-1,4-dihydro-2H-benzo[d][1,3]oxazine], at PXR-LBD-SRC1p [4], the Kd came out at 14.9 ± 2.6 µM, the “-TΔS°” value is on record as −4.8 ±0.3 kcal/mol•K, the “ΔH°” value was -1.8 ± 0.1 kcal/mol and the “ΔG°” value was -6.6 ± 0.1 kcal/mol.
For the compound `COc1ccc(CNc2ccc(Cl)cc2[C@@](O)(C#CC2CC2)C(F)(F)F)cc1` [analog 6, (S)-2-(5-chloro-2-((4-methoxybenzyl)amino)phenyl)-4-cyclopropyl-1,1,1-trifluorobut-3-yn-2-ol], at PXR-LBD-SRC1p [1], the Kd is 9.5 ± 2.7 µM and the “ΔG°” value was -6.8 ± 0.2 kcal/mol.

By Kd is commonly meant the concentration at which binding is half-saturated. Broadly, the IC50 is the concentration at which inhibition is half-maximal.
